Key:
Ldlr−/− mice = assay: AMLN diet-induced fatty liver model: body weight, serum and liver metabolic parameters; format: in vivo; conditions: 30 mg/kg/day intragastrically, 8 weeks
Text: Animals: Adult male C57BL/6J mice were purchased from Shanghai SLAC, and low-density lipoprotein receptor knockout mice (Ldlr^−/− mice, T001464) were purchased from Jiangsu GemPharmatech Co., Ltd. Mice were housed in an environment free of pathogens, maintained in a 12-hour light/dark cycle, and had free access to water and feed. The vehicle for oral gavage was 0.5% Tween-80, 0.5% methylcellulose, and 0.9% sodium chloride. AMLN feed (AMLN, Dyets) contains 40% (kcal %) fat (80% of which is trans fat), 22% (mass %) fructose, and 2% (mass %) cholesterol.
After drug treatment, mice were fasted for 4 hours before being euthanized, and blood and liver samples were collected. Blood was coagulated and centrifuged at 1,500 g for 10 minutes at 4° C. to obtain the supernatant (i.e., serum). Lipids from liver were extracted using the chloroform/methanol method. The samples were first homogenized and crushed using a Precelly 24 homogenizer, and centrifuged at 16,000 g for 10 minutes at 4° C. The organic phase was transferred to a new tube, dried with nitrogen, and dissolved in ethanol. Total cholesterol and triglyceride levels in blood and liver were measured by cholesterol and triglyceride kits (Shanghai Kehua Bio-Engineering Co., Ltd.), respectively. ALT (LE-M0477, Lai Er Bio-Tech) and AST (LE-M0568, Lai Er Bio-Tech) levels in serum were measured according to the corresponding manufacturer's manuals, using an analytical system from Sysmex Shanghai Ltd.
Male C57BL/6J mice and male Ldlr^−/− mice (TOO1464, Jiangsu GemPharmatech Co., Ltd.) at 8 weeks of age were purchased, grouped, fed with different diets, and treated with different drugs. The mice were randomly divided into 4 groups with 8 to 9 mice in each group: One group consisted of C57BL/6J wild-type mice, which was the chow diet (CD) vehicle control group. The other three groups consisted of Ldlr^−/− knockout mice, including chow diet (CD) vehicle control group, AMLN diet (containing […], 22% fructose, and 2% cholesterol) vehicle control group, and AMLN diet combined with 25-hydroxylanosterol administration group (25-hydroxylano sterol was administered at a concentration of 30 mg/kg/day). The mice in four groups were intragastrically administered once a day, during which the changes in food intake and body weight of the mice in different treatment groups were counted. After 8 weeks, blood and liver samples were collected from the mice to analyze blood lipids, liver lipids, and liver damage phenotypes.
In FIGS. 1 and 2, P values were calculated using the statistical analysis of two-way ANOVA (Dunnett's multiple comparisons test); * indicates P<0.05; ns indicates no statistical difference. In FIGS. 3 to 8, data are represented as mean±standard deviation. P values were calculated using one-way ANOVA; * indicates P<0.05; ** indicates P<0.01; *** indicates P<0.001.

liver organoids = assay: Nile Red and αSMA immunofluorescence staining of fatty liver organoids; format: cell-based, mice; conditions: mouse fatty liver organoids, 1 and 3 μM, 72 hours
Protocol: C57BL/6N mice were fed with fatty liver-inducing diet (TrophicDiet, TP2630052A, containing 10.2% kcal protein, 37.3% kcal carbohydrate, and 52.6% kcal fat) and fructose-containing drinking water (23.1 g of fructose and 18.9 g of dextrose were dissolved in 1 L of water, then filtered and sterilized) for a total of 16 weeks starting at 12 weeks of age to generate a fatty liver model. To generate fatty liver organoids, liver tissues from mice with fatty liver were minced and digested in digestion buffer at 37° C. for 30 to 60 minutes. The digestion buffer included DMEM/F-12 (Cytiva, SH30023.01), 2.5 mg/mL collagenase D (Roche, COLLD-RO), and 0.1 mg/mL DNaseI (Sigma-Aldrich, DN25). Isolated single hepatocytes were filtered through a 70 μm filter membrane and washed once. Cells were collected by centrifugation, and resuspended in a mixture of culture medium and basement membrane extract (BME) (R&D Systems, 3533-010-02) at a ratio of 1:3. […]
In FIGS. 35 and 36, data are represented as mean±standard deviation. P values were calculated using one-way ANOVA; ns indicates no statistical difference; * indicates P<0.05; ** indicates P<0.01; *** indicates P<0.001. In FIGS. 47 and 53, quantitative analysis was performed using ImageJ software. […] P values were calculated using one-way ANOVA; * indicates P<0.05; ** indicates P<0.01; *** indicates P<0.001.

## C[C@H](CCCC(C)(C)O)[C@H]1CC[C@@]2(C)C3=C(CC[C@]12C)[C@@]1(C)CC[C@H](O)C(C)(C)[C@@H]1CC3 [compound 68, (1R,3aR,5aR,7S,9aS,11aR)-1-[(2R)-6-hydroxy-6-methylheptan-2-yl]-3a,6,6,9a,11a-pentamethyl-2,3,3a,4,5,5a,6,7,8,9,9a,10,11,11a-tetradecahydro-1H-cyclopenta[1,2-a]phenanthren-7-ol]
Ldlr−/− mice
  alanine aminotransferase (ALT) in serum: significantly reduced
  aspartate aminotransferase (AST) in serum: significantly reduced
  total liver cholesterol levels: significantly reduced
  total liver triglyceride levels: significantly reduced
Ldlr−/− mice; vs AMLN diet vehicle control
  AMLN diet-induced weight gain: significantly lower
Ldlr−/− mice; vs control group
  total cholesterol levels in serum: significantly reduced
  total triglyceride levels in serum: significantly reduced
Liver organoids
  expression of fibrosis marker protein αSMA (immunofluorescence staining): decreasing
  lipid accumulation in organoids (Nile Red staining): reduced

— patent US20250154193A1, “STEROID COMPOUND, AND PREPARATION METHOD THEREFOR AND APPLICATION THEREOF” (CHOLESGEN (SHANGHAI) CO., LTD., priority 2022, published 2025)
